Consider two molecules from ChEMBL document CHEMBL3232940, “TNF-α inhibition elicited by mansoins A and B, heterotrimeric flavonoids isolated from Mansoa hirsuta” (J Nat Prod, 2014).

The nature of this test: Antiinflammatory activity in human THP1 cells assessed as inhibition of LPS-induced TNF-alpha production preincubated for 3 hrs followed by LPS-challenge measured after overnight incubation by sandwich ELISA. In kind it is functional, cell-based. To be noted: THP-1.

As for `O=C1C[C@@H](c2ccc(O)c(O[C@@H]3O[C@H](CO)[C@@H](O)[C@H](O)[C@H]3O)c2)Oc2c1c(O)c([C@@H](CCc1ccc(O)cc1)c1ccc(O)cc1O[C@@H]1O[C@H](CO)[C@@H](O)[C@H](O)[C@H]1O)c(O)c2[C@@H](CCc1ccc(O)cc1)c1ccc(O)cc1O[C@@H]1O[C@H](CO)[C@@H](O)[C@H](O)[C@H]1O`, the IC50 was 48.1 µM.
As for `O=C1C[C@@H](c2ccc(O)c(O)c2)Oc2c1c(O)c([C@@H](CCc1ccc(O)cc1)c1ccc(O)cc1O[C@@H]1O[C@H](CO)[C@@H](O)[C@H](O)[C@H]1O)c(O)c2[C@@H](CCc1ccc(O)cc1)c1ccc(O)cc1O[C@@H]1O[C@H](CO)[C@@H](O)[C@H](O)[C@H]1O`, the figure is 20 µM.
